Assay results taken from PubChem BioAssay (NCI).
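Step 1: Grow cells in 96-well plates. Step 2: Expose to compound for 48 hours at 5 concentrations. Step 3: Interpolate endpoints linearly; if unreached, use highest concentration. GI50: concentration for 50% inhibition of growth. TGI is the concentration that stops growth completely.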

Assays:
Assay in all cases: NCI tumour cell line growth inhibition, 48 h
[1] = tested on: A549 NSCLC
[2] = tested on: ACHN renal
[3] = tested on: COLO 205 colon
[4] = tested on: HOP-62 NSCLC
[5] = tested on: HT29 colon
[6] = tested on: MDA-MB-231 breast
[7] = tested on: MOLT-4 leukemia
[8] = tested on: NCI-H460 lung
[9] = tested on: SN12C renal
[10] = tested on: SNB-75 CNS

O=C(Nc1ccc(OS(=O)(=O)c2ccccc2)cc1)C12CC3CC(CC(C3)C1)C2 was tested, and the GI50 [1] was 6.9 µM, the TGI [1] was > 100 µM and the GI50 [2] was > 100 µM. For the same compound, the TGI [2] was > 100 µM, the GI50 [3] was 0.873 µM and the TGI [3] was > 100 µM. For the same compound, the GI50 [4] was > 100 µM, the TGI [4] was > 100 µM and the GI50 [5] was 0.403 µM. The TGI [5] was 3.69 µM, the GI50 [6] was 3.79 µM and the TGI [6] was > 100 µM. For the same compound, the GI50 [7] was 5.05 µM, the TGI [7] was > 100 µM and the GI50 [8] was 6.1 µM. The TGI [8] was > 100 µM, the GI50 [9] was > 100 µM and the TGI [9] was > 100 µM. For the same compound, the GI50 [10] was 7.16 µM and the TGI [10] was > 100 µM.

With COc1ccc2c(c1)CCC1C2CC[C@@]2(C)C1CC1=CC(COC(C)=O)C3C(=O)c4ccccc4C(=O)C3C12 (some centres not stated) the GI50 [1] was > 100 µM, the TGI [1] was > 100 µM and the GI50 [2] was 47.9 µM. For the same compound, the TGI [2] was > 100 µM, the GI50 [3] was > 100 µM and the TGI [3] was > 100 µM. For the same compound, the GI50 [4] was > 100 µM, the TGI [4] was > 100 µM and the GI50 [5] was 94.9 µM. For the same compound, the TGI [5] was > 100 µM, the GI50 [6] was 52.4 µM and the TGI [6] was > 100 µM. The GI50 [7] was > 100 µM, the TGI [7] was > 100 µM and the GI50 [8] was > 100 µM. For the same compound, the TGI [8] was > 100 µM, the GI50 [9] was > 100 µM and the TGI [9] was > 100 µM. For the same compound, the GI50 [10] was 36.3 µM and the TGI [10] was > 100 µM.

For O=C(c1ccccc1)c1cc(Cl)ccc1OCCCCN1CCN(CCCCOc2ccc(Cl)cc2C(=O)c2ccccc2)CC1, the GI50 [1] was 6.6 µM, the TGI [1] was 20.9 µM and the GI50 [2] was 4.64 µM. It also gave a TGI [2] of 16.1 µM, a GI50 [3] of 1.95 µM and a TGI [3] of 4.78 µM. The GI50 [4] was 3.82 µM, the TGI [4] was 13.6 µM and the GI50 [5] was 2.59 µM. The TGI [5] was 7.66 µM, the GI50 [6] was 2.4 µM and the TGI [6] was 5.75 µM. It also gave a GI50 [7] of 3.3 µM, a TGI [7] of 7.5 µM and a GI50 [8] of 2.17 µM. It also gave a TGI [8] of 4.87 µM, a GI50 [9] of 4.48 µM and a TGI [9] of 18 µM. It also gave a GI50 [10] of 6.98 µM and a TGI [10] of 24.9 µM.

In the case of CNCCNc1c2c(c(NCCNC)c3c(CN(C)C)c[nH]c13)C(=O)c1ccccc1C2=O, the GI50 [1] is reported as 3.42 µM, the TGI [1] is reported as 11.2 µM and the GI50 [2] is reported as 3.52 µM. For the same compound, the TGI [2] was 14.4 µM, the TGI [3] was > 34.5 µM and the GI50 [4] was 2.9 µM. The TGI [4] was 10.1 µM, the GI50 [5] was 3.41 µM and the TGI [5] was 31.6 µM. It also gave a GI50 [6] of 0.486 µM, a TGI [6] of 8.31 µM and a GI50 [7] of 0.434 µM. It also gave a GI50 [8] of 1.46 µM, a TGI [8] of 11.2 µM and a GI50 [9] of 0.788 µM. For the same compound, the TGI [9] was 7.47 µM, the GI50 [10] was 7.14 µM and the TGI [10] was 22 µM.

For CCC[CH2][Sn]([CH2]CCC)([CH2]CCC)[O]C(=O)CC, the GI50 [1] was 0.172 µM, the TGI [1] was 0.342 µM and the GI50 [2] was 0.17 µM. For the same compound, the TGI [2] was 0.333 µM, the GI50 [3] was 0.178 µM and the TGI [3] was 0.372 µM. The GI50 [4] was 0.188 µM, the TGI [4] was 0.414 µM and the GI50 [5] was 0.13 µM. For the same compound, the TGI [5] was 0.322 µM, the GI50 [6] was 0.144 µM and the TGI [6] was 0.343 µM. The GI50 [7] was 0.247 µM, the TGI [7] was 1 µM and the GI50 [8] was 0.135 µM. For the same compound, the TGI [8] was 0.281 µM, the GI50 [9] was 0.158 µM and the TGI [9] was 0.365 µM. For the same compound, the GI50 [10] was 0.144 µM and the TGI [10] was 0.349 µM.

CC/C(=C(/c1ccc(OCCN(C)C)cc1)c1ccc(OC(=O)CCCCC(=O)c2c(C)[nH]c(/C=C3\N=C(c4ccc[nH]4)C=C3OC)c2C)cc1)c1ccccc1 gave a GI50 [1] of 3.92 µM, a TGI [1] of 15.7 µM and a GI50 [2] of 4.84 µM. For the same compound, the TGI [2] was 22.8 µM, the GI50 [3] was 10.7 µM and the TGI [3] was 23.2 µM. It also gave a GI50 [4] of 12.3 µM, a TGI [4] of 24.7 µM and a GI50 [5] of 2.99 µM. For the same compound, the TGI [5] was 14.7 µM, the GI50 [6] was 1.99 µM and the TGI [6] was 11.4 µM. It also gave a GI50 [7] of 1.73 µM, a TGI [7] of 24.8 µM and a GI50 [8] of 3.99 µM. It also gave a TGI [8] of 15.5 µM, a GI50 [9] of 5.39 µM and a TGI [9] of 21.4 µM. For the same compound, the GI50 [10] was 8.17 µM and the TGI [10] was 23.2 µM.

With CNCCCn1cc(C2=C(c3cn(C)c4ccccc34)C(=O)NC2=O)c2ccccc21 the GI50 [1] was 4.09 µM, the TGI [1] was 10.8 µM and the GI50 [2] was 3.99 µM. It also gave a TGI [2] of 13.9 µM, a GI50 [3] of 1.95 µM and a TGI [3] of 5.52 µM. For the same compound, the GI50 [4] was 5.59 µM, the TGI [4] was 13.4 µM and the GI50 [5] was 1.14 µM. It also gave a TGI [5] of 12.2 µM, a GI50 [6] of 5.32 µM and a TGI [6] of 15.1 µM. For the same compound, the GI50 [7] was 5 µM, the TGI [7] was 19.1 µM and the GI50 [8] was 4.53 µM. For the same compound, the TGI [8] was 9.19 µM, the GI50 [9] was 4.86 µM and the TGI [9] was 18.4 µM. The GI50 [10] was 0.281 µM and the TGI [10] was 2.95 µM.

In the case of O=C1NC(=Nc2ccccc2)S/C1=C\c1ccc2ncccc2c1, the GI50 [1] is reported as > 7.12 µM, the TGI [1] is reported as > 25 µM and the GI50 [2] is reported as > 25 µM. For the same compound, the TGI [2] was > 25 µM, the GI50 [3] was > 25 µM and the TGI [3] was > 25 µM. For the same compound, the GI50 [4] was 4.46 µM, the TGI [4] was > 25 µM and the GI50 [5] was > 25 µM. For the same compound, the TGI [5] was > 25 µM, the GI50 [6] was > 25 µM and the TGI [6] was > 25 µM. The GI50 [7] was > 25 µM, the TGI [7] was > 25 µM and the GI50 [8] was > 6.82 µM. For the same compound, the TGI [8] was > 25 µM, the GI50 [9] was > 25 µM and the TGI [9] was > 25 µM. For the same compound, the TGI [10] was > 25 µM.

Work on C#Cc1cccc(Nc2ncnc3cc(OC)c(OCCCCCCC(=O)NO)cc23)c1 yielded a GI50 [1] of 0.404 µM, a TGI [1] of 4.45 µM and a GI50 [2] of 0.127 µM. For the same compound, the TGI [2] was 2.48 µM, the GI50 [3] was 0.157 µM and the TGI [3] was 0.538 µM. For the same compound, the GI50 [4] was 0.311 µM, the TGI [4] was 4.57 µM and the GI50 [5] was 0.253 µM. It also gave a TGI [5] of 5.33 µM, a GI50 [6] of 0.274 µM and a TGI [6] of 2.29 µM. For the same compound, the GI50 [7] was 0.0864 µM, the TGI [7] was 1.93 µM and the GI50 [8] was 0.444 µM. For the same compound, the TGI [8] was 4.31 µM, the GI50 [9] was 0.129 µM and the TGI [9] was 4.21 µM. It also gave a GI50 [10] of 0.0267 µM and a TGI [10] of 0.468 µM.

Compound COC(=O)/C=C/c1cc(O)c2oc(-c3ccc(O)c(O)c3)c(C(=O)OC)c2c1 has a GI50 [1] of 1.27 µM, a TGI [1] of 14.1 µM and a GI50 [2] of 0.361 µM. For the same compound, the TGI [2] was 10.4 µM, the GI50 [3] was 8.27 µM and the TGI [3] was 23.6 µM. For the same compound, the GI50 [4] was 0.442 µM, the TGI [4] was 12.7 µM and the GI50 [5] was 3.24 µM. The TGI [5] was 11.5 µM, the GI50 [6] was 0.927 µM and the TGI [6] was 15.8 µM. It also gave a GI50 [7] of 0.462 µM, a TGI [7] of 7.11 µM and a GI50 [8] of 2.66 µM. For the same compound, the TGI [8] was 18.1 µM, the GI50 [9] was 0.576 µM and the TGI [9] was 12.2 µM. The GI50 [10] was 0.0376 µM and the TGI [10] was 1.41 µM.

In the case of COc1cc(Nc2cn[nH]c2-c2ccc(Cl)cc2)cc(OC)c1OC, the GI50 [1] is reported as 5.96 µM, the TGI [1] is reported as > 100 µM and the GI50 [2] is reported as 7.41 µM. For the same compound, the TGI [2] was > 76.8 µM, the GI50 [3] was 4.39 µM and the TGI [3] was 21.9 µM. For the same compound, the GI50 [4] was 6.91 µM, the TGI [4] was 44.5 µM and the GI50 [5] was 3.24 µM. The TGI [5] was 14.3 µM, the GI50 [6] was 6.79 µM and the TGI [6] was > 90.3 µM. For the same compound, the GI50 [7] was 3.65 µM, the TGI [7] was > 80.2 µM and the GI50 [8] was 3.7 µM. The TGI [8] was 19.1 µM, the GI50 [9] was 8.68 µM and the TGI [9] was > 100 µM. It also gave a GI50 [10] of 1.14 µM and a TGI [10] of 7.66 µM.
